Data on 13 molecules can be found in patent US8536202B2, “Triazole-substituted anthranilamides as pesticides” (Bayer Cropscience AG, priority 2010, dated 2013).

Like-named read-outs stand apart in the source and are kept apart here.

The test system of data set [1] is caterpillars of the armyworm (Spodoptera frugiperda). Nature of the data set: Spodoptera frugiperda test (SPODFR spray treatment). The format is in vivo. To be noted: 168 h, after 7 days; for pest or weed control at 100 g/ha: read-out: activity in %. In outline: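 Maize leaf discs sprayed with compound diluted in emulsifier-containing water (acetone/DMF solvent, alkylaryl polyglycol ether emulsifier), dried, then infested with armyworm caterpillars. Kill scored after 7 days as % mortality, 100% = all caterpillars dead, 0% = none.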

Data set [2] deals with larvae of the mustard beetle (Phaedon cochleariae). Put plainly: Phaedon test (PHAECO spray treatment). To be noted: 168 h, 100 g/ha, after 7 days, read-out: activity in %. The format is in vivo. In outline:
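Compound dissolved in acetone/dimethylformamide with alkylaryl polyglycol ether emulsifier, then diluted with emulsifier-containing water to test concentration for spray treatment of Phaedon cochleariae larvae. Activity scored after 7 days as % larvae killed (100% = all dead, 0% = none).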

Data set [3] can be described thus: log P determination by HPLC on reversed-phase columns (EEC Directive 79/831 Annex V.A8). It counts as physicochemical. To be noted: pH 2.7. In outline:
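log P from reversed-phase LC-MS retention at pH 2.7, 0.1% formic acid water/acetonitrile gradient 10–95% acetonitrile. Calibrated against C3–C16 unbranched alkan-2-ones, interpolating linearly between adjacent alkanones.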

Data set [4] concerns green peach aphid (Myzus persicae). Nature of the data set: Myzus test (MYZUPE spray treatment), Use Example 4. The format is in vivo. As to conditions: 144 h, after 6 days; for pest or weed control at 100 g/ha: read-out: activity in %. The gist of the method: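 Compound was formulated in acetone/dimethylformamide with alkylaryl polyglycol ether emulsifier and diluted in emulsifier-containing water. It was sprayed onto Chinese cabbage leaf discs infested with all stages of Myzus persicae. Mortality (%) was scored after 6 days, where 100% means all aphids killed.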

The mark [5] stands for this setting: reversed-phase C18 HPLC column, HPLC on reversed-phase columns (C 18), EEC Directive 79/831 Annex V.A8, read-out: logP.

As to `CSC[C@H](C)NC(=O)c1cc(Cl)cc(Cl)c1NC(=O)c1cc(Cn2cc(C(F)(C(F)(F)F)C(F)(F)F)nn2)nn1-c1ncccc1Cl` [Example 246], the results for the pest or weed control at 100 g/ha in data set [1], in data set [2] and in data set [4] were 100%, 100% and 80%, respectively. The chromatographic logP in data set [3] (setting [5]) was determined as 4.02.
Consider `Cc1cc(I)cc(C(N)=O)c1NC(=O)c1cc(Cn2cc(C(F)(F)C(F)(F)F)nn2)nn1-c1ncccc1Cl` [Example 315], for which the pest or weed control at 100 g/ha is 100% in data set [1], 100% in data set [2] and 90% in data set [4]. Besides, the chromatographic logP in data set [3] was determined as 2.98.
For `Cc1cc(Cl)cc(C(=O)NC(C)(C)C)c1NC(=O)c1cc(Cn2nccn2)nn1-c1ncccc1Cl` [Example 121], the pest or weed control at 100 g/ha in data set [1], in data set [2] and in data set [4] was 100% in each case. In addition, in data set [3], the chromatographic logP was found to be 2.87.
For the molecule `Cc1cc(I)cc(C(N)=O)c1NC(=O)c1cc(Cn2ncc(C(F)(C(F)(F)F)C(F)(F)F)n2)nn1-c1ncccc1Cl` [Example 271], in data set [1], the pest or weed control at 20 g/ha was 100%. Also, the values for the pest or weed control at 100 g/ha in data set [2] and in data set [4] were 100% and 80%, respectively. The chromatographic logP in data set [3] was 3.7.
With `Cc1cc(Cl)cc(C(=O)NC(C)(C)C)c1NC(=O)c1cc(Cn2cc(C(F)(F)C(F)(F)F)nn2)nn1-c1ncccc1Cl` [Example 304], the pest or weed control at 100 g/ha in data set [1], in data set [2] and in data set [4] was 100% throughout. For the same molecule, in data set [3], the chromatographic logP is 3.85.
As to `Cc1cc(Cl)cc(C(=O)NCC2CC2)c1NC(=O)c1cc(Cn2ncc(C(F)(F)C(F)(F)F)n2)nn1-c1ncccc1Cl` [Example 349], the results for the pest or weed control at 100 g/ha in data set [1], in data set [2] and in data set [4] were 100%, 100% and 80%, respectively. The molecule further had a chromatographic logP in data set [3] of 3.96.
Turning to `CCNC(=O)c1cc(Cl)cc(C)c1NC(=O)c1cc(Cn2cc(C(F)(F)F)nn2)nn1-c1ncccc1Cl` [Example 189], the pest or weed control at 100 g/ha in data set [1] was 100%; in data set [2] it was 100%; in data set [4] it was 80%. Besides, the chromatographic logP in data set [3] turned out to be 2.9.
Turning to `CSC[C@H](C)NC(=O)c1cc(Cl)cc(C)c1NC(=O)c1cc(Cn2cc(C(F)(C(F)(F)F)C(F)(F)F)nn2)nn1-c1ncccc1Cl` [Example 230], the pest or weed control at 100 g/ha came out at 100% in data set [1], 100% in data set [2] and 80% in data set [4]. Also, in data set [3] (setting [5]), the chromatographic logP worked out at 4.04.
`Cc1cc(C#N)cc(C(N)=O)c1NC(=O)c1cc(Cn2ncc(C(F)(F)F)n2)nn1-c1ncccc1Cl` [Example 123]: the pest or weed control at 100 g/ha in data set [1] and in data set [2] was 100% throughout. The chromatographic logP in data set [3] turned out to be 2.41. Also, in data set [4] (20 g/ha), the pest or weed control at 20 g/ha worked out at 100%.
`Cc1cc(C#N)cc(C(=O)NC(C)(C)C)c1NC(=O)c1cc(Cn2cc(C(F)(C(F)(F)F)C(F)(F)F)nn2)nn1-c1ncccc1Cl` [Example 220] displayed a pest or weed control at 20 g/ha in data set [1] of 100%. Moreover, the pest or weed control at 100 g/ha in data set [2] and in data set [4] was 100% in each case. For the same molecule, the chromatographic logP in data set [3] (setting [5]) was found to be 3.75.
For the molecule `Cc1cc(C#N)cc(C(=O)NC(C)C)c1NC(=O)c1cc(Cn2cc(C(F)(F)C(F)(F)F)nn2)nn1-c1ncccc1Cl` [Example 320], the pest or weed control at 100 g/ha in data set [1], in data set [2] and in data set [4] was 100% each time. For the same molecule, the chromatographic logP in data set [3] amounted to 3.11.
Take `Cc1cc(C#N)cc(C(=O)NC(C)(C)C)c1NC(=O)c1cc(Cn2cc(C(F)(F)F)nn2)nn1-c1ncccc1Cl` [Example 182]: the pest or weed control at 100 g/ha in data set [1], in data set [2] and in data set [4] was 100% throughout. Besides, the chromatographic logP in data set [3] is 2.97.
For the molecule `CSC[C@H](C)NC(=O)c1cc(I)cc(C)c1NC(=O)c1cc(Cn2cc(C(F)(F)F)nn2)nn1-c1ncccc1Cl` [Example 212], the pest or weed control at 100 g/ha in data set [1], in data set [2] and in data set [4] was 100% each time. The molecule further displayed a chromatographic logP in data set [3] of 3.59.
